Read-outs that look alike come from different tables or passages of the source.
Assays:
[1] = test system: synaptosomal uptake, serotonin; test: Inhibition of synaptosomal uptake of serotonin; assay type: biochemical; details: rat cerebral cortex synaptosomes, 50 nM [14C]serotonin, pH 7.4, 37° C.
Protocol: (§1) Inhibition of the Synaptosomal Uptake of Monoamines
(§2) Crude synaptosome preparations from rat cerebral cortex were made by homogenizing the tissues in 10 volumes of ice-cold 0.32M sucrose with all-glass Potter'-Elvehjem's homogenizers. The homogenates were centrifuged at 800 g at +2° C. for 10 min. The supernatants were centrifuged at 12000 g at +2° C. for 10 min, and the pellets were rehomogenized in 0.32M sucrose to the original volume. The incubation of the preparations with [^14 C]serotonin plus [^3 H]noradrenaline with final concentrations of 50 nM of each amine was performed in a Micronic PPN Storage-Block-96 (Flow Laboratories) with 8×12 wells using two rows at each incubation. Four to five different concentrations of two test compounds in duplicates were examined at each incubation. Fifty microliters of the synaptosomal preparation, 400 μl of the Krebs-Henseleit's buffer, pH 7.4, containing 5.6 mM glucose, 1.1 mM ascorbic acid, 0.13 mM disodium edetate, and 50 μM pargyline, and 25 μl of the inhibitor or distilled water were added to the wells. The solutions were mixed by vortexing the block for 10 s. After 10-min preincubation at 37° C. in a water bath, 25 μl of the solutions of the radioactively labeled amines was added to the two rows with a Titretec Multicannel Pipette, type 12-Channel (Flow Laboratories). The reaction was immediately started by vortexing the block for 10 s on a Super-Mixer, and the incubation was continued for 2 min at 37° C. The uptake reaction was stopped by filtration and washing for 15 s with ice-cold 0.15M NaCl through a Whatman GF/B glass filter paper in a 24-channel Cell Harvester (Brandel) using the standard harvesting probe. The filters were left to dry in room temperature for about 1 h. The punched filters were transformed to counting vials, 10 mL of the scintillation liquid (Aquasol, NEN) was added, and vials were shaken and allowed to stand for 1 h before counting. The radioactivety was measured in a Packard Tri Carb liquid scintillation photometer. The active uptake of the amines was defined as the difference between the accumulation of the radioactivity in the absence (quadriplicates) and the presence (quadriplicates) of selective uptake inhibitors, determined at each incubation. These inhibitors were citalopram (0.3 μM) for the serotonin uptake and maprotiline (1 μM) for the norepinephrine uptake. The inhibition was calculated in percent of the active uptake. The IC50 values were obtained from log concentration-response curves.

[2] = test system: synaptosomal uptake, noradrenalin; test: Inhibition of synaptosomal uptake of noradrenalin; assay type: biochemical; details: rat cerebral cortex synaptosomes, 50 nM [3H]noradrenaline, pH 7.4, 37° C.
Protocol: as §1, §2

[3] = test system: cholinergic responses (oxotremorine-induced tremor); test: Potentiation of oxotremorine-induced tremor in rats; assay type: in vivo, rat (Sprague Dawley); details: for minimal effective dose: Rattus norvegicus
Protocol: Potentiation of cholinergic responses
Studies on oxotremorine-induced tremor in rats
Male rats (Sprague Dawley Alab Laboratorietjanst AB, Sollentuna, Sweden) weighing 150-180 g, 35-40 days of age, were used. The animals were allowed free access to food (R3, Ewos AB, Sodertalje, Sweden) and water until the start of the experiments. The test compounds were injected intraperitoneally (i.p.) 30 min before injection of oxotremorine into the neck (s.c.). Tremor intensity was assessed visually for a 60 min period following the injection of oxotremorine in rat housed in Macrolon cages (25×25×30 cm) (tree per cage). The treshold dose of oxotremorine for eliciting tremor in rat is 200 μg/kg.
Tremor intensity was scored using the following rating scale: 0=no tremor; 1=slight tremor (moderate, discontinuous tremor); 2=strong tremor (intense, continuous tremor involving the whole body). The animals were scored 5, 10, 15, 30 and 60 min after injection of oxotremorine. The tremor was scored for a period of 30 seconds.
The values for each observation were summed over the entire observation period (5-60 min) and their median values for each group were calculated (total median score). Mann-Whitney U-test (two-tailed) was used to determine differences between the control oxotremorine group and test groups receiving the compounds+oxotremorine. It should be noted that a control group receiving oxotremorine alone was always run concurrently with each compound tested.
The lowest dose causing a significant (p<0.05) potentiation of the oxotremorine response was determined from log-dose response curves.

[4] = test system: cholinergic responses; details: U.S. Pat. No. 4 469 707; cited from earlier work
[5] = test system: central nervous system; details: man; U.S. Pat. No. 4 237 311; cited from earlier work
[6] = test system: neuronal 5-hydroxytryptamine (5-HT) uptake; details: U.S. Pat. No. 4 237 311; cited from earlier work
[7] = ip, read-out: Potentiation of OTMN tremor in rat (lowest dose causing a significant potentiation), i.p. 30 min before oxotremorine s.c., p<0.05, scored 5-60 min
[8] = ip, i.p. 30 min before oxotremorine s.c., p<0.05, scored 5-60 min, read-out: Potentiation of OTMN tremor in rat (lowest dose causing a significant potentiation)
[9] = i.p. 30 min before oxotremorine s.c., p<0.05, scored 5-60 min

Row | Compound | EC50 [1] | EC50 [2] | minimal effective dose [3, 7] | minimal effective dose [3, 8] | other results
1 | CCC(N)C(=O)OC(C)(C)Cc1ccc(Cl)cc1 (centres unmarked) [Example 1, 1-(4-Chlorophenyl)-2-methyl-2-propyl 2-aminobutanoate] | 2.8 µM | 8 µM | 2.5 mg/kg |  | 
2 | CC(C)CC(N)C(=O)OC(C)(C)Cc1ccc(Cl)cc1 (centres unmarked) [Example 11, 1-(4-Chlorophenyl)-2-methyl-2-propyl 2-amino-4-methylpentanoate] | 8 µM | 3.4 µM | 10 mg/kg |  | 
3 | C=CCC(N)C(=O)OC(C)(C)Cc1ccc(Cl)cc1 (centres unmarked) [Example 5, 1-(4-Chlorophenyl)-2-methyl-2-propyl 2-amino-4-pentenoate] | 3.6 µM | 2.5 µM |  | 20 mg/kg | 
4 | O=C1CCCN1CC#CCN1CCCC1 [oxotremorine, reference compound] |  |  |  |  | minimal effective dose ([3]; sc, read-out: threshold dose of oxotremorine for eliciting tremor in rat, s.c., oxotremorine alone): 0.2 mg/kg
5 | CCCC(N)C(=O)OC(C)(C)Cc1ccc(Cl)cc1 (centres unmarked) [Example 4, 1-(4-Chlorophenyl)-2-methyl-2-propyl 2-aminopentanoate] | 2.3 µM | 1.5 µM |  | 2.5 mg/kg | 
6 | CCCC(N)C(=O)OC(C)(C)Cc1ccc(F)cc1 (centres unmarked) [Example 3, 1-(4-fluoropnenyl)-2-methyl-2-propyl 2-aminopentanoate] | 6 µM | 3.2 µM |  | 10 mg/kg | 
7 | CC(C)C(N)C(=O)OC(C)(C)Cc1ccc(Cl)cc1 (single isomer, unassigned; (+)) [Example 26, (+)-1-(4-Chlorophenyl)-2-methyl-2-propyl 2-amino-3-methylbutanoate] | 8.7 µM | 1.8 µM | 20 mg/kg |  | 
8 | CC(C)C(N)C(=O)OC(C)(C)Cc1ccc(Cl)cc1 (single isomer, unassigned) [Example 27, 1-(4-chlorophenyl)-2-methyl-2-propyl 2-amino-3-methyl-butanoate] | 3.3 µM | 1.7 µM |  |  | Potentiation of OTMN tremor in rat (lowest dose causing a significant potentiation) [3, 9]: 10 mg/kg
9 | CC(C)C(N)C(=O)OC(C)(C)Cc1ccc(F)cc1 (centres unmarked) [Example 13, 1-(4-Fluorophenyl)-2-methyl-2-propyl 2-amino-3-methylbutanoate] | 10 µM | 2.9 µM |  | 20 mg/kg | 
10 | 1-(4-Chlorophenyl)-2-methyl-2-propyl SS/RS-2-amino-3-methylpentanoate [Example 15] | 8 µM | 3.1 µM |  |  | Potentiation of OTMN tremor in rat (lowest dose causing a significant potentiation) [3, 9]: 10 mg/kg
11 | CC(N)C(=O)OC(C)(C)Cc1ccc(Cl)cc1 (centres unmarked) [Alaproclate, reference compound] | 0.12 µM | > 10 µM | 5 mg/kg |  | effect on cholinergic responses (in words) [4]: potentiating effect on cholinergic responses; tremor response induced by a threshold dose of oxotremorine (in words) ([3]; threshold dose of oxotremorine): enhance the tremor response; antidepressive activity (in words) [5]: antidepressive activity combined with a reduced frequency of side effects; effect on neuronal 5-HT uptake (in words) [6]: blocking the neuronal 5-hydroxytryptamine (5-HT) uptake
12 | C#CCC(N)C(=O)OC(C)(C)Cc1ccc(Cl)cc1 (centres unmarked) [Example 7, 1-(4-Chlorophenyl)-2-methyl-2-propyl 2-amino-4-pentynoate] | > 10 µM | > 10 µM |  | 10 mg/kg | 
13 | CCC(C)C(N)C(=O)OC(C)(C)Cc1ccc(Cl)cc1 (centres unmarked) [Example 12, 1-(4-Chlorophenyl)-2-methyl-2-propyl 2-amino-3-methylpentanoate] | 6.5 µM | 3.2 µM | 20 mg/kg |  | 
14 | CCC(N)C(=O)OC(C)(C)Cc1ccc(F)cc1 (centres unmarked) [Example 2, 1-(4-fluorophenyl)-2-methyl-2-propyl 2-aminobutanoate] | 3 µM | 7 µM | 10 mg/kg |  | 
15 | CC(C)C(N)C(=O)OC(C)(C)Cc1cc(Cl)cc(Cl)c1 (centres unmarked) [Example 14, 1-(3,5-Dichlorophenyl)-2-methyl-2-propyl 2-amino-3-methylbutanoate] | 4 µM | > 10 µM |  | 10 mg/kg | 

From patent US4990534A, “Aralkyl esters and processes for their preparation” (priority 1987, dated 1991)
